US5194432A, “Cephem compounds” (Fujisawa Pharmaceutical Co., Ltd., priority 1985, dated 1993)
≈ marks a conversion by molar mass, not a printed value.

Columns and labels:
Type in all cases: cell-based
P. vulgaris IAM1025 = experiment: In vitro antibacterial activity, two-fold agar-plate dilution method (MIC), P. vulgaris IAM1025; conditions: Proteus vulgaris, heart infusion agar, 10^6 viable cells per ml, 37° C., 20 hours, read-out: MIC (minimal inhibitory concentration)
Procedure: (§1) In vitro antibacterial activity was determined by the two-fold agar-plate dilution method as described below.
(§2) One loopful of an overnight culture of each test strain in Trypticase-soy broth (10^6 viable cells per ml) was streaked on heart infusion agar (HI-agar) containing graded concentrations of representative test compound, and the minimal inhibitory concentration (MIC) was expressed in terms of μg/ml after incubation at 37° C. for 20 hours.

P. mirabilis 1 = experiment: In vitro antibacterial activity, two-fold agar-plate dilution method (MIC), P. mirabilis 1; conditions: Proteus mirabilis, heart infusion agar, 10^6 viable cells per ml, 37° C., 20 hours, read-out: MIC (minimal inhibitory concentration)
Procedure: as §1, §2

E. coli 31 = experiment: In vitro antibacterial activity, two-fold agar-plate dilution method (MIC), E. coli 31; conditions: Escherichia coli, heart infusion agar, 10^6 viable cells per ml, 37° C., 20 hours, read-out: MIC (minimal inhibitory concentration)
Procedure: as §1, §2

Structure (SMILES) | MIC (P. vulgaris IAM1025) [µg/mL] | MIC (P. mirabilis 1) [µg/mL] | MIC (E. coli 31) [µg/mL]
CO/N=C(\C(=O)N[C@@H]1C(=O)N2C(C(=O)[O-])=C(C[n+]3cc(C)c(N)n3C)CS[C@H]12)c1csc(N)n1 [Compound C, 7β-[2-(2-Aminothiazol-4-yl)-2-methoxyiminoacetamido]-3-(3-amino-2,4-dimethyl-1-pyrazolio)methyl-3-cephem-4-carboxylate (syn isomer)] | ≤ 0.025 | 0.05 (≈ 0.0987 µM) | ≤ 0.025
Cc1c[n+](CC2=C(C(=O)[O-])N3C(=O)[C@@H](NC(=O)/C(=N\OC(F)F)c4csc(N)n4)[C@H]3SC2)n(C)c1N [Compound D, 7β-[2-(2-Aminothiazol-4-yl)-2-(difluoromethoxyimino)acetamido]-3-(3-amino-2,4-dimethyl-1-pyrazolio)methyl-3-cephem-4-carboxylate (syn isomer)] | ≤ 0.025 | 0.05 (≈ 0.0922 µM) | ≤ 0.025
Cn1ccc[n+]1CC1=C(C(=O)[O-])N2C(=O)[C@@H](NC(=O)/C(=N\OC(F)F)c3csc(N)n3)[C@H]2SC1 [Compound A, 7β-[2-(2-Aminothiazol-4-yl)-2-(difluoromethoxyimino)acetamido]-3-(2-methyl-1-pyrazolio)methyl-3-cephem-4-carboxylate (syn isomer)] | 0.05 (≈ 0.0974 µM) | 0.05 (≈ 0.0974 µM) | < 0.025
Cn1ccc[n+]1CC1=C(C(=O)[O-])N2C(=O)[C@@H](NC(=O)/C(=N\OC3C=CCC3)c3csc(N)n3)[C@H]2SC1 (stereo partly drawn) [Compound B, 7β-[2-(2-Aminothiazol-4-yl)-2-(2-cyclopenten-1-yloxyimino)acetamido]-3-(2-methyl-1-pyrazolio)methyl-3-cephem-4-carboxylate (syn isomer)] | 0.05 (≈ 0.0944 µM) | 0.2 (≈ 0.378 µM) | 0.05 (≈ 0.0944 µM)
